Laboratory results: BigSolDB 2.1

Row | Structure (SMILES) | solubility (mole fraction) (in n-hexane, 293.2 K) | solubility (mole fraction) (in n-hexane, 298.2 K) | solubility (mole fraction) (in n-hexane, 303.2 K) | solubility (mole fraction) (in n-hexane, 310.2 K) | solubility (mole fraction) (in n-hexane, 315.2 K) | solubility (mole fraction) (in n-octanol, 288.2 K) | solubility (mole fraction) (in n-octanol, 290.7 K) | solubility (mole fraction) (in n-octanol, 293.2 K) | solubility (mole fraction) (in n-octanol, 295.7 K) | solubility (mole fraction) (in n-octanol, 298.2 K) | solubility (mole fraction) (in n-octanol, 303.2 K) | solubility (mole fraction) (in n-octanol, 310.2 K) | solubility (mole fraction) (in n-octanol, 315.2 K)
1 | Cc1ccc(Cl)cc1Nc1nc(CC(C)O)ns1 (stereo not given) | 2.95e-05 | 3.79e-05 | 4.73e-05 | 5.55e-05 | 6.64e-05 | 0.0441 | 0.0465 | 0.0488 | 0.0515 | 0.054 |  |  | 
2 | COc1ccc(Nc2nc(CC(C)O)ns2)cc1 (stereo not given) | 9.2e-06 | 1.51e-05 | 2.02e-05 | 3.51e-05 | 4.8e-05 |  |  | 0.0466 |  | 0.0627 | 0.0694 | 0.101 | 0.121
3 | Cc1ccc(Nc2nc(CC(C)O)ns2)cc1Cl (stereo not given) | 3.2e-06 | 4.8e-06 | 6.2e-06 | 9.2e-06 | 1.28e-05 |  |  | 0.0121 |  | 0.0134 | 0.0166 | 0.021 | 0.0251
4 | CC(O)Cc1nsc(Nc2ccc(Cl)cc2)n1 (stereo not given) | 3.5e-06 | 5.2e-06 | 6.9e-06 | 1.13e-05 | 1.73e-05 |  |  | 0.0187 |  | 0.0218 | 0.0245 | 0.029 | 0.035
5 | CC(O)Cc1nsc(Nc2cccc(Cl)c2)n1 (stereo not given) | 5.5e-06 | 9e-06 | 1.32e-05 | 2.4e-05 | 3.62e-05 |  |  | 0.0546 |  | 0.0633 | 0.0729 | 0.0885 | 0.101
6 | Cc1cccc(Nc2nc(CC(C)O)ns2)c1 (stereo not given) | 2.49e-05 | 3.4e-05 | 4.59e-05 | 5.6e-05 | 7.05e-05 |  |  | 0.0266 |  | 0.0355 | 0.038 | 0.0501 | 0.0558
